The source made the active and inactive calls. The calls are words filed in the database; no cut-off is given here.
Tests used:
Assay type in all cases: functional
Staphylococcus aureus [1] = test: Growth inhibition of Staphylococcus aureus 1199B expressing NorA at 0.1 mg/ml after 24 hrs
Staphylococcus aureus [2] = test: Growth inhibition of Staphylococcus aureus RN4220 expressing MsrA at 0.1 mg/ml after 24 hrs; conditions: for inhibition at 100 µg/mL: RN4220, 24 h
Staphylococcus aureus [3] = test: Growth inhibition of Staphylococcus aureus 1199B expressing NorA at 0.1 mg/ml after 24 hrs in presence of 4 mg/L ciprofloxacin
Staphylococcus aureus [4] = test: Growth inhibition of Staphylococcus aureus RN4220 expressing MsrA at 0.1 mg/ml after 24 hrs in presence of 16 mg/L erythromycin
Staphylococcus aureus [5] = test: Growth inhibition of Staphylococcus aureus ATCC 25923 at 0.1 mg/ml after 24 hrs; conditions: for inhibition at 100 µg/mL: ATCC 25923, 24 h

| SMILES | inhibition at 100 µg/mL (Staphylococcus aureus [1]) | inhibition at 100 µg/mL (Staphylococcus aureus [2]) | Inhibition (Staphylococcus aureus [3]) | Inhibition (Staphylococcus aureus [4]) | inhibition at 100 µg/mL (Staphylococcus aureus [5]) | Activity (Staphylococcus aureus [5]) | Activity (Staphylococcus aureus [2]) | Activity (Staphylococcus aureus [3]) | Activity (Staphylococcus aureus [4]) | Activity (Staphylococcus aureus [1]) |
| --- | --- | --- | --- | --- | --- | --- | --- | --- | --- | --- |
| CCCCCCCCCCCCn1cc(CN2C(=O)c3ccccc3C2=O)nn1 | 40% | 43% | 45% | 65% | 20% | – | – | – | – | – |
| c1ccc(Cn2cc(COc3ccccc3)nn2)cc1 | 21% | 32.7% | 20% | 43% | 12% | – | – | – | – | – |
| O=C1c2ccccc2C(=O)N1Cc1cn(-c2ccccc2)nn1 | 17% | 24% | 17% | 41% | – | inactive | – | – | – | – |
| O=C1c2ccccc2C(=O)N1Cc1cn(-c2cccnc2)nn1 | 22% | 46% | 26.6% | 71% | 24% | – | – | – | – | – |
| c1ccc(OCc2cn(-c3cccnc3)nn2)cc1 | 22% | 30% | 56% | 58% | 22% | – | – | – | – | – |
| CCOC(OCC)c1cn(Cc2ccccc2)nn1 | 6% | 19% | 8% | 28% | 32% | – | – | – | – | – |
| COC(=O)c1cn(Cc2ccccc2)nn1 | 15% | 15% | 18% | 33% | 25% | – | – | – | – | – |
| OCc1cn(Cc2ccccc2)nn1 | 6% | – | – | – | 6.1% | – | inactive | inactive | inactive | – |
| C=CCn1cc(C(=O)O)nn1 | – | – | 6% | – | – | inactive | inactive | – | inactive | inactive |
| COc1ccc(-n2cc(C(=O)O)nn2)cc1 | 21% | 38% | 24% | 45.8% | – | inactive | – | – | – | – |
| CCOC(OCC)c1cn(-c2cccnc2)nn1 | 6.3% | – | – | – | – | inactive | inactive | inactive | inactive | – |
| COc1ccc(-n2cc(COc3ccccc3)nn2)cc1 | 11% | 21% | 16% | 39% | 10% | – | – | – | – | – |
| O=C1c2ccccc2C(=O)N1Cc1cn(Cc2ccccc2)nn1 | 57% | 30% | 36% | 44% | – | inactive | – | – | – | – |
| O=[N+]([O-])c1ccc(-n2cc(COc3ccccc3)nn2)cc1 | 18% | 34% | 24% | 56% | 27% | – | – | – | – | – |
| C=CCn1cc(C(OCC)OCC)nn1 | – | 6% | – | 40% | 17% | – | – | inactive | – | inactive |
| COc1ccc(-n2cc(CN3C(=O)c4ccccc4C3=O)nn2)cc1 | 15% | 24.1% | 18% | 48% | 24% | – | – | – | – | – |
| CCOC(OCC)c1cn(-c2ccc(OC)cc2)nn1 | 11% | 9% | 71% | 25% | – | inactive | – | – | – | – |
| c1ccc(OCc2cn(-c3ccccc3)nn2)cc1 | 11% | 11% | 26% | 41% | 31% | – | – | – | – | – |
| O=C(O)c1cn(-c2cccnc2)nn1 | 23% | 52.6% | 24% | 78% | 14% | – | – | – | – | – |
| O=C(O)c1cn(Cc2ccccc2)nn1 | 8% | 31% | 9% | 22% | – | inactive | – | – | – | – |
| C=CCn1cc(CN2C(=O)c3ccccc3C2=O)nn1 | 18% | 33% | 23% | 36% | – | inactive | – | – | – | – |
| C=CCn1cc(COc2ccccc2)nn1 | 15% | 32% | 20% | 38% | 16% | – | – | – | – | – |
| O=C(O)c1cn(-c2ccccc2)nn1 | 18% | 54% | 15% | 74.9% | – | inactive | – | – | – | – |
| O=C1c2ccccc2C(=O)N1Cc1cn(-c2ccc([N+](=O)[O-])cc2)nn1 | 35% | 48.1% | 38% | 72% | 22% | – | – | – | – | – |
| CCCCCCCCn1cc(CN2C(=O)c3ccccc3C2=O)nn1 | 27.4% | 40% | 25% | 24% | – | inactive | – | – | – | – |
| CCOC(OCC)c1cn(-c2ccccc2)nn1 | – | – | – | – | – | inactive | inactive | inactive | inactive | inactive |
| C=CCn1cc(C(=O)OC)nn1 | 16% | 44% | 16% | 71% | 21% | – | – | – | – | – |
| COC(=O)c1cn(-c2cccnc2)nn1 | – | 11% | – | 78.3% | 16% | – | – | inactive | – | inactive |
